Data: patent US8247211B2, “Glycopeptide antibiotics” (American Cyanamid Company, priority 2001, dated 2012)
≈ marks a conversion by molar mass, not a printed value.

Tests used:
Experiment in all cases: In vitro antibacterial evaluation: minimum inhibitory concentration (MIC), broth dilution method
Format in all cases: cell-based
Enterococcus sp. = settings: 18 hours at 35° C.
Method in brief: (§1)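 An MIC is reported for each organism as the least concentration giving inhibition, using broth dilution over 64-0.06 μg/mL with a 5×10^5 CFU/mL inoculum.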

Escherichia coli = settings: 18 hours at 35° C.
Method in brief: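 Using Muller-Hinton II […] and an inoculum of 5×10^5 CFU/mL, antibiotic dilutions from 64 down to 0.06 μg/mL were tested following NCCLS M7-A2. The MIC is the lowest concentration inhibiting growth, including in methicillin-, penicillin- or vancomycin-resistant clinical isolates.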

Staphylococcus sp. = tested on: Staphylococcus sp.
Method in brief: as §1

Streptococcus sp. = settings: 18 hours at 35° C.
Method in brief: as §1

[1] = broth dilution, inoculum 5×10^5 CFU/mL

N=C1NCC(C(O)C2NC(=O)C(Cc3ccc(OC4OC(CO)C(OC5OC6COC(CCc7ccccc7)OC6C(O)C5O)C(O)C4O)cc3)NC(=O)C(CC3CCCCC3)NC(=O)CNC(=O)C(CO)NC(=O)C(C(O)C3CNC(=N)N3C3OC(CO)C(O)C(O)C3O)NC2=O)N1 (stereo not drawn) [Example 198, Cyclo[3-cyclohexylalanyl-O-[4-O-[4,6-O-(3-phenylpropylidene)hexopyranosyl]hexopyranosyl]tyrosyl-3-(2-iminoimidazolidin-4-yl)seryl-3-(3-hexopyranosyl-2-iminoimidazolidin-4-yl)serylserylglycyl]]
MIC Enterococcus avium (GC 4558) (Enterococcus sp.; Enterococcus avium (GC 4558)): 1 µg/mL (≈ 0.713 µM) | MIC Enterococcus faecalis (ATCC 29212) (Enterococcus sp.; Enterococcus faecalis (ATCC 29212)): 1 µg/mL (≈ 0.713 µM) | MIC Enterococcus faecalis (GC 2242) (Enterococcus sp.; Enterococcus faecalis (GC 2242)): 1 µg/mL (≈ 0.713 µM) | MIC Enterococcus faecalis (GC 2691) (Enterococcus sp.; Enterococcus faecalis (GC 2691)): 1 µg/mL (≈ 0.713 µM) | MIC Enterococcus faecalis (GC 3059) (Enterococcus sp.; Enterococcus faecalis (GC 3059)): 1 µg/mL (≈ 0.713 µM) | MIC Enterococcus faecalis (GC 4552) (Enterococcus sp.; Enterococcus faecalis (GC 4552)): 1 µg/mL (≈ 0.713 µM) | MIC Enterococcus faecalis (GC 4553) (Enterococcus sp.; Enterococcus faecalis (GC 4553)): 1 µg/mL (≈ 0.713 µM) | MIC Enterococcus faecalis (GC 4554) (Enterococcus sp.; Enterococcus faecalis (GC 4554)): 1 µg/mL (≈ 0.713 µM) | MIC Enterococcus faecalis (GC 6189) (Enterococcus sp.; Enterococcus faecalis (GC 6189)): 1 µg/mL (≈ 0.713 µM) | MIC Enterococcus faecium (GC 2243) (Enterococcus sp.; Enterococcus faecium (GC 2243)): 1 µg/mL (≈ 0.713 µM) | MIC Enterococcus faecium (GC 4556) (Enterococcus sp.; Enterococcus faecium (GC 4556)): 1 µg/mL (≈ 0.713 µM) | MIC Enterococcus faecium (GC 4557) (Enterococcus sp.; Enterococcus faecium (GC 4557)): 1 µg/mL (≈ 0.713 µM) | MIC Enterococcus avium (GC 4558) (Enterococcus sp.; [1]): 1 µg/mL (≈ 0.713 µM) | MIC Enterococcus faecalis (ATCC 29212) (Enterococcus sp.; [1]): 1 µg/mL (≈ 0.713 µM) | MIC Enterococcus faecalis (GC 2242) (Enterococcus sp.; [1]): 1 µg/mL (≈ 0.713 µM) | MIC Enterococcus faecalis (GC 2691) (Enterococcus sp.; [1]): 1 µg/mL (≈ 0.713 µM) | MIC Enterococcus faecalis (GC 3059) (Enterococcus sp.; [1]): 1 µg/mL (≈ 0.713 µM) | MIC Enterococcus faecalis (GC 4552) (Enterococcus sp.; [1]): 1 µg/mL (≈ 0.713 µM) | MIC Enterococcus faecalis (GC 4553) (Enterococcus sp.; [1]): 1 µg/mL (≈ 0.713 µM) | MIC Enterococcus faecalis (GC 4554) (Enterococcus sp.; [1]): 1 µg/mL (≈ 0.713 µM) | MIC Enterococcus faecalis (GC 6189) (Enterococcus sp.; [1]): 1 µg/mL (≈ 0.713 µM) | MIC Enterococcus faecium (GC 2243) (Enterococcus sp.; [1]): 1 µg/mL (≈ 0.713 µM) | MIC Enterococcus faecium (GC 4556) (Enterococcus sp.; [1]): 1 µg/mL (≈ 0.713 µM) | MIC Enterococcus faecium (GC 4557) (Enterococcus sp.; [1]): 1 µg/mL (≈ 0.713 µM) | MIC Escherichia coli (ATCC 25922) (Escherichia coli; Escherichia coli (ATCC 25922)): 32 µg/mL (≈ 22.8 µM) | MIC Escherichia coli (GC 4559) (Escherichia coli; Escherichia coli (GC 4559)): 32 µg/mL (≈ 22.8 µM) | MIC Escherichia coli (GC 4560) (Escherichia coli; Escherichia coli (GC 4560)): 1 µg/mL (≈ 0.713 µM) | MIC Staphylococcus aureus (ATCC 29213) (Staphylococcus sp.; strain ATCC 29213): 0.5 µg/mL (≈ 0.356 µM) | MIC Staphylococcus aureus (GC 1131) (Staphylococcus sp.; strain GC 1131): 1 µg/mL (≈ 0.713 µM) | MIC Staphylococcus aureus (GC 3051) (Staphylococcus sp.; strain GC 3051): 0.5 µg/mL (≈ 0.356 µM) | MIC Staphylococcus aureus (GC 3053) (Staphylococcus sp.; strain GC 3053): 0.5 µg/mL (≈ 0.356 µM) | MIC Staphylococcus aureus (GC 4541) (Staphylococcus sp.; strain GC 4541): 0.5 µg/mL (≈ 0.356 µM) | MIC Staphylococcus aureus (GC 4542) (Staphylococcus sp.; strain GC 4542): 0.25 µg/mL (≈ 0.178 µM) | MIC Staphylococcus aureus-SMITH (GC 4543) (Staphylococcus sp.; strain GC 4543): 0.5 µg/mL (≈ 0.356 µM) | MIC Staphylococcus aureus (GC 4544) (Staphylococcus sp.; strain GC 4544): 0.5 µg/mL (≈ 0.356 µM) | MIC Staphylococcus aureus (GC 4545) (Staphylococcus sp.; strain GC 4545): 0.5 µg/mL (≈ 0.356 µM) | MIC Staphylococcus haemolyticus (GC 4546) (Staphylococcus sp.; strain GC 4546): 0.5 µg/mL (≈ 0.356 µM) | MIC Coagulase Negative Staphylococcus (GC 4547) (Staphylococcus sp.; strain GC 4547): 1 µg/mL (≈ 0.713 µM) | MIC Coagulase Negative Staphylococcus (GC 4548) (Staphylococcus sp.; strain GC 4548): >0.12 µg/mL | MIC Coagulase Negative Staphylococcus (GC 4549) (Staphylococcus sp.; strain GC 4549): 0.5 µg/mL (≈ 0.356 µM) | MIC Coagulase Negative Staphylococcus (GC 4551) (Staphylococcus sp.; strain GC 4551): 0.5 µg/mL (≈ 0.356 µM) | MIC Streptococcus agalactiae (GC 4564) (Streptococcus sp.; Streptococcus agalactiae (GC 4564)): <0.12 µg/mL | MIC Streptococcus pneumoniae (ATCC 6301) (Streptococcus sp.; Streptococcus pneumoniae (ATCC 6301)): <0.12 µg/mL | MIC Streptococcus pneumoniae (GC 1894) (Streptococcus sp.; Streptococcus pneumoniae (GC 1894)): <0.12 µg/mL | MIC Streptococcus pneumoniae (GC 4565) (Streptococcus sp.; Streptococcus pneumoniae (GC 4565)): <0.12 µg/mL | MIC Streptococcus pyogenes (GC 4563) (Streptococcus sp.; Streptococcus pyogenes (GC 4563)): <0.12 µg/mL | MIC Streptococcus agalactiae (GC 4564) (Streptococcus sp.; [1]): <0.12 µg/mL | MIC Streptococcus pneumoniae (ATCC 6301) (Streptococcus sp.; [1]): <0.12 µg/mL | MIC Streptococcus pneumoniae (GC 1894) (Streptococcus sp.; [1]): <0.12 µg/mL | MIC Streptococcus pneumoniae (GC 4565) (Streptococcus sp.; [1]): <0.12 µg/mL | MIC Streptococcus pyogenes (GC 4563) (Streptococcus sp.; [1]): <0.12 µg/mL
